Test results from publication PMC9953660, “Using ΔK280 TauRD Folding Reporter Cells to Screen TRKB Agonists as Alzheimer’s Disease Treatment Strategy” (Biomolecules, 2023).

Key:
[1] = Cell number / cell survival in induced ΔK280 TauRD-DsRed SH-SY5Y cells (high-content); format: cell-based, human; settings: human; induced SH-SY5Y cells expressing ΔK280 TauRD-DsRed for 6 days, 2–10 μM tested; read-out: IC50 cytotoxicity based on cell number
Protocol: (§1) ΔK280 TauRD-DsRed SH-SY5Y cells were plated in the presence of 10 μM retinoid acid (RA; Sigma-Aldrich) to promote neuronal differentiation. The next day, cells were added with congo red or ZN/VB compounds (2–10 μM) for 8 h pretreatment, followed by inducing ΔK280 TauRD-DsRed expression with doxycycline (2 μg/mL). On day 8, cell nuclei were stained with Hoechst 33342 (0.1 μg/mL; Thermo Scientific), and cell images acquired using ImageXpress Micro Confocal High-Content Imaging System (Molecular Devices, San Jose, CA, USA) with DAPI (4′,6-diamidino-2-phenylindole, for nuclei) and TRITC (tetramethylrhodamine, for DsRed) fluorescence filter sets. To detect ROS changes, 10 μM compound-treated cells were stained with Hoechst 33342 and 2′,7′-dichlorodihydrofluorescein diacetate (H2DCFDA, 10 μM) fluorescein (Invitrogen, Carlsbad, CA, USA), and cell images captured using DAPI and FITC (fluorescein isothiocyanate, for DCF) filters. For assessing differential neurite outgrowth, 10 μM compound-treated cells were fixed (paraformaldehyde, 4%), permeabilized (Triton X-100, 0.3%), and stained with class III β-tubulin (TUBB3, 1:1000) primary antibody (#802001, BioLegend, San Diego, CA, USA), followed by donkey anti-rabbit Alexa Fluor® 555 secondary antibody (1:1000; #A-31572, Invitrogen) and DAPI (0.1 μg/mL; Sigma-Aldrich) stains. The nuclei and neurite images were acquired with DAPI and TRITC fluorescence filters, respectively. All analyses of images were performed using MetaXpress software (Molecular Device).

[2] = molecular target: T1, E. coli-expressed ΔK280 TauRD protein (Homo sapiens, UniProt P10636, DEL597-597); assay: Thioflavin T fluorescence ΔK280 TauRD aggregation assay; format: biochemical; settings: TauRD protein 20 μM, 48 h at 37 °C; read-out: EC50 inhibiting ΔK280 TauRD aggregation
T1 construct: TauRD (Q^244-E^372 of Tau, NP_005901) aggregation; N-terminal Met (N); made in house; host or cells: E. coli
Protocol: The anti-aggregation activity of congo red (positive control) and ZN/VB compounds (5–20 μM) was assessed using E. coli-expressed ΔK280 TauRD protein [33] and thioflavin T (Sigma-Aldrich) fluorescence assay. The trend of ΔK280 TauRD amyloid aggregate formation depicted with enhanced and red-shifted fluorescence was recorded by a FLx800 microplate fluorescence reader (BioTek Instruments), where the procedure was previously reported in detail.

caspase-6 = assay: Caspase-6 activity assay in cell lysates; format: cell-based, human; settings: uninduced = 100%, induced untreated 110.5%
Protocol: After being compounds-treated and RA-differentiated, cells were collected for caspase-1/6 and AChE activity measurements. Cells were lysed in lysis buffer with repeated freeze/thaw cycles and protein concentration in cell lysates quantitated. Types of substrates applied to detect each caspase’s activity were: YVAD-AFC for caspase-1 and VEID-AFC for caspase-6 (BioVision, Milpitas, CA, USA). The reaction mixtures were incubated for 1.5 h at 37 °C according to the manufacturer’s instructions. The fluorescence intensities with excitation/emission wavelengths at 400/505 nm were recorded by a FLx800 microplate fluorescence reader (BioTek Instruments). An AChE activity assay was performed according to the manufacturer’s instructions (Sigma-Aldrich), as described in the Ref. [28]. The mixture was incubated for 2–10 min at room temperature, and absorbance at 412 nm wavelength was measured by Multiskan™ GO Microplate Spectrophotometer (Thermo Scientific).

[3] = system: TRKB knockdown ΔK280 TauRD-DsRed SH-SY5Y cells; assay: TRKB RNA interference: TRKB protein level and neurite outgrowth; format: cell-based, human; settings: 10 μM
Protocol: as §1, with “For assessing differential neurite outgrowth, 10 μM compound-treated cells were fixed (paraformaldehyde, 4%), permeabilized (Triton X-100, 0.3%), and stained with class III β-tubulin (TUBB3, 1:1000) primary antibody (#802001, BioLegend, San Diego, CA, USA), followed by donkey anti-rabbit Alexa Fluor® 555 secondary antibody (1:1000; #A-31572, Invitrogen) and DAPI (0.1 μg/mL; Sigma-Aldrich) stains.” left out, “All analyses of images were performed using MetaXpress software (Molecular Device).” left out
Cells were collected and protein extracted as described. […] Protein signals were detected with chemiluminescent substrate (Millipore) using the ImageQuant™ LAS 4000 imager and analysis software (GE Healthcare, UK). […]

T1 sequence (P10636 with tags, fused parts or gaps isoform P10636-8 DEL280-280): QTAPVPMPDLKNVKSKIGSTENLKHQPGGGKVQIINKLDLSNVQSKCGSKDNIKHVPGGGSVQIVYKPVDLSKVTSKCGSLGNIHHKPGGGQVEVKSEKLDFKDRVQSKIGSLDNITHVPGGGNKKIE

O=C(/C=C/c1ccccc1O)c1c(O)c2ccccc2oc1=O [ZN-015, (E)-4-hydroxy-3-(3-(2-hydroxyphenyl)acryloyl)-2H-chromen-2-one]
IC50 at 6 days [1]: 16 µM | EC50 [2]: 13.2 µM | caspase-6 activity (caspase-6): 99.8% | neurite process ([3]; TRKB knockdown): 2.17 | neurite process ([3]; scrambled shRNA): 2.35
